Where two headings read alike, the source gives them in different places. No end group written: not given here.
What was measured:
Peronospora tabacina = experiment: Tobacco blue mold spore germination assay; format: cell-based; settings: for % Germination (mean +/− sem): final concentration of 2 μg/mL, control 76.6 +/− 11.2; for % Control: germination as % of no-peptide control, 2 μg/mL; for antifungal activity (in words): refers to EXAMPLE 12
Procedure: Tobacco blue mold (Peronospora tabacina) was used to compare the antifungal activity of Rev4 with that of MYP30. Spores of Peronospora tabacina were harvested from infected tobacco leaf with sterile water and washed three times. The spore suspension was diluted to 2,000 spores per mL. Peptide solution (2 μL) was added to spore suspension (48 μL) in a 96-well microtiter plate. After incubation in the dark at room temperature for 24 hours, the number of germinated spores was determined microscopically.
The peptides described as SEQ. ID Nos. 4, 5, 6, 7 and 8 in Examples 1, 3, 4, 5 and 6 were tested for antifungal activity as described in Example 11.

Chymotrypsin = target: T1, Chymotrypsin (Bos taurus, UniProt P00766); experiment: Inhibition of protease digestion of fluorescent labeled casein: chymotrypsin; format: biochemical; settings: for Chymotrypsin Activity (Fluorescence Units) Mean: no-peptide control 375
T1 construct: purchased
Procedure: (§1) The ability of Rev4 to inhibit four different classes of proteases was tested using fluorescent labeled casein as substrate under the following conditions:
(§2) Each protease was incubated with substrate (5 μg/mL fluorescent labeled casein; Molecular Probes Inc., Eugene, Oreg.) and peptide in a total volume of 200 μL in a 96-well microtiter plate. Before use, papain was activated with cysteine (Arnon, 1970, Methods in Enzymology 19:226–44). After incubation at room temperature for one hour, fluorescence due to casein digestion was measured in a Luminescence Spectrometer (LS50B, Perkin Elmer Ltd., England) with an excitation wavelength of 505 nm and an emission wavelength of 513 nm. The blank control contained the substrate, buffer and peptide but lacked the protease.
The peptides described in EXAMPLE 12 were tested for their effects on the action of chymotrypsin on casein using the methods described in EXAMPLE 10.

[1] = test system: proteases in the intercellular fluid of plant leaves; settings: cited from earlier work
Pseudomonas aeruginosa = settings: Falla and Hancock 1997; cited from earlier work
E. coli = settings: Falla and Hancock 1997; cited from earlier work
Candida albicans = settings: Falla and Hancock 1997; cited from earlier work
Staphylococcus aureus = settings: Falla and Hancock 1997; cited from earlier work
[2] = test system: Alternaria alternata f.sp. lycopersici; experiment: Minimum concentration to completely inhibit spore germination, Alternaria; format: cell-based; settings: 5,000 spores per mL, triplicate
Excerpt: (§3) The antifungal activity of Rev4 and related peptides was also compared using two tomato pathogens, Verticillium dahliae racel and Alternaria alternata f.sp. lycopersici. Spores were harvested from pure cultures grown on V8 medium, diluted to 5,000 spores per mL, and tested against dilution series of peptides in 96-well plates as described in U.S. Pat. No. 5,424,395.

[3] = test system: Verticillium dahliae racel; experiment: Minimum concentration to completely inhibit spore germination, Verticillium; format: cell-based; settings: 5,000 spores per mL, triplicate
Excerpt: as §3

[4] = test system: proteases present in whole cell extract (WCE); experiment: Protection of Magainin 2 from degradation by WCE (Magainin 2 mixed with Rev4); format: in vitro ADME, Kentucky 14 tobacco; settings: in Rev4 + Magainin 2 Mix
Procedure: (§4) Whole cell extract (WCE) was prepared by grinding one gram of Kentucky 14 tobacco leaf tissue in liquid nitrogen, followed by extraction with 3 mL of 100 mM Tris-HCl buffer, pH 7.5, 50 mM NaCl. The mixture was clarified by spinning in a microcentrifuge (14,000 r.p.m., 5 minutes). The supernatant (WCE) was kept frozen as aliquots at −80° C. until required for an assay. Fifty micrograms of each peptide was incubated with different amounts of WCE in 50 mM Tris-HCl buffer, pH 7.5, total volume 50 microliters, for one hour at 37° C. The reaction was stopped by adding 1% trifluoroacetic acid (TFA). A sample of the reaction mixture (20 μL) was injected onto a Vydac C4 column (4.6×250 mm) in a Waters HPLC system with 515 pumps, 486 detector and Millenium software. The sample was eluted with a gradient of 0.1% TFA in water to 60% acetonitrile in 0.1% TFA. The area of the peak corresponding to the undigested peptide was integrated and compared with the equivalent peak from a 0% WCE control.
(§5) Assays for WCE protease degradation were performed as described in Example 8 except that one of the samples represented Magainin 2 that was mixed with Rev4 before the addition of WCE. The amounts of Magainin 2 and Rev4 remaining in the mixture were determined by HPLC as described for Examples 7 and 8.

[5] = Stability of peptides to proteases in whole cell extract (WCE), HPLC; format: in vitro ADME, Kentucky 14 tobacco; settings: other tissue homogenate, peptide alone, read-out: % Peptide Remaining Intact after 1 Hr.
Procedure: as §4, §5

[6] = test system: proteases present in whole cell extract (WCE); experiment: as above; format: in vitro ADME, Kentucky 14 tobacco; settings: peptide alone
Procedure: as §4, §5

Papain = target: T2, Papain (Carica papaya, UniProt P00784); experiment: Inhibition of protease digestion of fluorescent labeled casein: papain; format: biochemical; settings: pH 6.2, papain 0.01 mg/mL, pH6.2, read-out: % Inhibition of Proteolysis
T2 construct: purchased
T2 sequence (P00784 134-345): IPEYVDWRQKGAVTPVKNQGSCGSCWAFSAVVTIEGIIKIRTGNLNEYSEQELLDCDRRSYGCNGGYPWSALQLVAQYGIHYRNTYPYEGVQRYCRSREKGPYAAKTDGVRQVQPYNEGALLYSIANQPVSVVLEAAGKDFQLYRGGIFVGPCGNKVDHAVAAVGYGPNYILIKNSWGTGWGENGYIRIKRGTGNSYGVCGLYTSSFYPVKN
Procedure: as §1, §2

Pepsin = target: T3, Pepsin (Sus scrofa, UniProt P00791); experiment: Inhibition of protease digestion of fluorescent labeled casein: pepsin; format: biochemical; settings: pH 2, pepsin 0.01 mg/mL, pH2.0, read-out: % Inhibition of Proteolysis
T3 construct: purchased
T3 sequence (P00791 60-385): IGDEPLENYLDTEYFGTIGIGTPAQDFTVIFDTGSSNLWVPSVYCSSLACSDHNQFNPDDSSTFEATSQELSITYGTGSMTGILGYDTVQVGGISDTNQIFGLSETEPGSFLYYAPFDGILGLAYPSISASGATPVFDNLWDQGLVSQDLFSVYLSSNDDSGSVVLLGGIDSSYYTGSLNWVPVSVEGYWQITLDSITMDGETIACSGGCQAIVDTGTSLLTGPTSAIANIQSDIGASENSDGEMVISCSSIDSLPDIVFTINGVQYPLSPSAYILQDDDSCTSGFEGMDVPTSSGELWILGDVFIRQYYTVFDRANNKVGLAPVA
Procedure: as §1, §2

## Ile Leu Lys Gly Phe Pro Gly Phe Pro Arg Arg Lys (ILKGFPGFPRRK-NH2) [SEQ. ID NO. 8, derivative of indolicidin in which Trp residues were replaced by Phe and a Pro residue was deleted]
Peronospora tabacina
  % Germination (mean +/− sem): 17.3 +/− 3.5%
  % Control: 23%
  antifungal activity (in words): had retained antifungal activity
Chymotrypsin
  protection of fluorescent-labeled casein from chymotrypsin (in words): did not have this protective effect
Chymotrypsin; peptide 5 μg/mL
  Chymotrypsin Activity (Fluorescence Units) Mean: 385 Fluorescence Units
Chymotrypsin; peptide 20 μg/mL
  Chymotrypsin Activity (Fluorescence Units) Mean: 321 Fluorescence Units

## cecropin B: antimicrobial peptide cecropin B (KWKVFKKIEKMGRNIRNGIVKAGPAIAVLGEAKAL; ends and bridges not checked; UniProt P01508 27-61, looked up)
[1]
  degradation / stability against proteases of plant intercellular fluid (in words): rapidly degraded

## ILKKWPWWPWRR [CP-11, synthetic peptide based on indolicidin (Falla and Hancock)]
Pseudomonas aeruginosa
  activity against Pseudomonas aeruginosa relative to indolicidin (in words): better activity
E. coli
  activity against E. coli relative to indolicidin (in words): better activity
Candida albicans
  activity against Candida albicans relative to indolicidin (in words): better activity
Staphylococcus aureus
  activity against Staphylococcus aureus relative to indolicidin (in words): reduced activity

## Ile Leu Pro Phe Lys Phe Pro Phe Phe Pro Phe Arg Arg (ILPFKFPFFPFRR-NH2) [SEQ. ID NO. 7, indolicidin in which the Trp residues were replaced with Phe]
[2]
  minimum concentration required to completely inhibit spore germination for at least 48 hours: 100 µg/mL
Peronospora tabacina
  % Germination (mean +/− sem): 8.8 +/− 5.4%
  % Control: 11%
  antifungal activity (in words): had retained antifungal activity
Chymotrypsin
  protection of fluorescent-labeled casein from chymotrypsin (in words): did not have this protective effect
Chymotrypsin; peptide 5 μg/mL
  Chymotrypsin Activity (Fluorescence Units) Mean: 386 Fluorescence Units
Chymotrypsin; peptide 20 μg/mL
  Chymotrypsin Activity (Fluorescence Units) Mean: 385 Fluorescence Units
[3]
  minimum concentration required to completely inhibit spore germination for at least 48 hours: 50 µg/mL

## H-GIGKFLHSAKKFGKAFVGEIMNS-OH [Magainin 2, reference compound]
[4]; 15% WCE
  % Peptide Remaining Intact after 1 Hr.: 89.7%
[4]; 30% WCE
  % Peptide Remaining Intact after 1 Hr.: 87.6%
[4]; 60% WCE
  % Peptide Remaining Intact after 1 Hr.: 73.1%
[4]; 90% WCE
  % Peptide Remaining Intact after 1 Hr.: 56.3%
[5]; pH 7.5, 15% WCE
  remaining at 1 h, 1 mg/mL: 10.9%
[5]; pH 7.5, 30% WCE
  remaining at 1 h, 1 mg/mL: 0.3%
[5]; pH 7.5, 90% WCE
  remaining at 1 h, 1 mg/mL: 0.4%
[6]; 45% WCE
  % Peptide Remaining Intact after 1 Hr.: 0.4%
[6]; 60% WCE
  % Peptide Remaining Intact after 1 Hr.: 0.3%

## RRWPWWPWKWPLIGGGYDPAPPPPPP [SEQ. ID NO. 6, Rev4 with a C-terminal extension of 13 amino acids]
[2]
  minimum concentration required to completely inhibit spore germination for at least 48 hours: 50 µg/mL
Peronospora tabacina
  % Germination (mean +/− sem): 5.7 +/− 9.8%
  % Control: 7%
Chymotrypsin
  protection of fluorescent-labeled casein from chymotrypsin (in words): protected fluorescent-labeled casein from the action of chymotrypsin
Chymotrypsin; peptide 5 μg/mL
  Chymotrypsin Activity (Fluorescence Units) Mean: 212 Fluorescence Units
Chymotrypsin; peptide 20 μg/mL
  Chymotrypsin Activity (Fluorescence Units) Mean: 45 Fluorescence Units
[3]
  minimum concentration required to completely inhibit spore germination for at least 48 hours: 23 µg/mL

## RRWPWWPWKWPLI-NH2 [Rev4, Arg Arg Trp Pro Trp Trp Pro Trp Lys Trp Pro Leu Ile]
Chymotrypsin; pH 8, Rev4 2.5 μg/ml, chymotrypsin 0.01 mg/mL, pH8.0, read-out: % Inhibition of Proteolysis
  inhibition at 2.5 µg/mL: 16%
Chymotrypsin; pH 8, Rev4 5 μg/ml, chymotrypsin 0.01 mg/mL, pH8.0, read-out: % Inhibition of Proteolysis
  inhibition at 5 µg/mL: 42%
Chymotrypsin; pH 8, Rev4 10 μg/ml, chymotrypsin 0.01 mg/mL, pH8.0, read-out: % Inhibition of Proteolysis
  inhibition at 10 µg/mL: 75%
Chymotrypsin; pH 8, Rev4 20 μg/ml, chymotrypsin 0.01 mg/mL, pH8.0, read-out: % Inhibition of Proteolysis
  inhibition at 20 µg/mL: 97%
Papain; Rev4 2.5 μg/ml
  inhibition at 2.5 µg/mL: 29%
Papain; Rev4 5 μg/ml
  inhibition at 5 µg/mL: 72%
Papain; Rev4 10 μg/ml
  inhibition at 10 µg/mL: 93%
Papain; Rev4 20 μg/ml
  inhibition at 20 µg/mL: 99%
Pepsin; Rev4 25 μg/ml
  inhibition at 25 µg/mL: 3%
Pepsin; Rev4 50 μg/ml
  inhibition at 50 µg/mL: 0%
Pepsin; Rev4 100 μg/ml
  inhibition at 100 µg/mL: 0%

## Ser Arg Arg Trp Pro Trp Trp Pro Trp Lys Trp Pro Leu Ile (SRRWPWWPWKWPLI-OH) [SEQ. ID NO. 5, analog of Rev4 in which an extra Ser was added to the N-terminus]
Peronospora tabacina
  % Germination (mean +/− sem): 6.8 +/− 6.3%
  % Control: 9%
Chymotrypsin
  protection of fluorescent-labeled casein from chymotrypsin (in words): protected fluorescent-labeled casein from the action of chymotrypsin
Chymotrypsin; peptide 5 μg/mL
  Chymotrypsin Activity (Fluorescence Units) Mean: 162 Fluorescence Units
Chymotrypsin; peptide 20 μg/mL
  Chymotrypsin Activity (Fluorescence Units) Mean: 44 Fluorescence Units
[3]
  minimum concentration required to completely inhibit spore germination for at least 48 hours: 50 µg/mL
